The results in this text go back to patent US7736624B2, “Methods and compositions for diagnostic and therapeutic targeting of COX-2” (priority 2006, dated 2010).

The target of data set [1] is T1, COX-2 (Homo sapiens, UniProt P35354).
T1 sequence (P35354 18-604): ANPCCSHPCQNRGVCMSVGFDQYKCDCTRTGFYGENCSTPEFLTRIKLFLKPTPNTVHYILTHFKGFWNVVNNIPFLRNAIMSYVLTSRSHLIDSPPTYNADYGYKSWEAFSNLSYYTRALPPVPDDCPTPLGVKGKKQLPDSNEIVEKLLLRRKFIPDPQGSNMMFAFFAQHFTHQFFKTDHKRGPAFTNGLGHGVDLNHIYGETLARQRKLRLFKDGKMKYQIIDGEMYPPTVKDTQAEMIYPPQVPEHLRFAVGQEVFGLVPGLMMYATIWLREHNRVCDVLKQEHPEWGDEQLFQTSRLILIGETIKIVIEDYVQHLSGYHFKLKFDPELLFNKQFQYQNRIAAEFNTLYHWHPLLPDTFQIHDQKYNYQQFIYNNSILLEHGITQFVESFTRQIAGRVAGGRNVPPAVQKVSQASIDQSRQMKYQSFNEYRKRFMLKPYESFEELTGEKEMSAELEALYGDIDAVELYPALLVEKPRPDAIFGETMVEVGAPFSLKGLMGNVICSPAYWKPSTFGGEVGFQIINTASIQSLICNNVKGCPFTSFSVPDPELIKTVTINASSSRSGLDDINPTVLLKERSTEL
As to the kind of experiment: IC50 determinations using purified enzymes (TLC assay), COX-2. The class given is biochemical. The arrangement: made in house; host or cells: Sf9 insect cells. To be noted: assayed against purified enzymes, read-out: IC50 COX-2. From the text:
(§1) Those skilled in the art will appreciate that an evaluation of the selectivity and efficacy of binding of the NSAID derivative to the COX-2 enzyme, e.g., after the derivative is synthesized, can be desirable. […] One example of an in vitro screening method takes advantage of the fact that both human and murine recombinant COX-2 can be expressed and isolated in pure form from an Sf9 cell expression system. […] Alternatively, membrane preparations from outdated human platelets can provide a source of human COX-1. […] The reaction is stopped by the addition of ethanol/methanol/1 M citrate, pH 4.0 (30:4:1). The extracted products are separated by thin layer chromatography (TLC), which allows quantitation of total product formation as well as assessment of product distribution. This assay is useful to define IC50 values for inhibition of either enzyme, and to determine time-dependency of inhibition. It also provides information concerning changes in products formed as a result of inhibition.
(§2) Reactions were terminated by solvent extraction in Et2O/CH3OH/1 M citrate, pH 4.0 (30:4:1). The phases were separated by centrifugation at 2000 g for 5 minutes and the organic phase was spotted on a 20×20 cm TLC plate (Lieselgel 60, EMD Chemicals, Inc., Gibbstown, N.J., United States of America). The plate was developed in EtOAc/CH2Cl2/glacial AcOH (75:25:1) at 4° C. Radiolabeled prostanoid products were quantitatively determined with a radioactivity scanner available from Bioscan, Inc. (Washington, D.C., United States of America). The percentage of total products observed at different concentrations of the presently disclosed compositions was divided by the percentage of products observed for protein samples preincubated for the same amount of time with DMSO.

The next data set has as its target T2, COX-1 (Mus musculus, UniProt P22437).
T2 sequence (P22437 1-602): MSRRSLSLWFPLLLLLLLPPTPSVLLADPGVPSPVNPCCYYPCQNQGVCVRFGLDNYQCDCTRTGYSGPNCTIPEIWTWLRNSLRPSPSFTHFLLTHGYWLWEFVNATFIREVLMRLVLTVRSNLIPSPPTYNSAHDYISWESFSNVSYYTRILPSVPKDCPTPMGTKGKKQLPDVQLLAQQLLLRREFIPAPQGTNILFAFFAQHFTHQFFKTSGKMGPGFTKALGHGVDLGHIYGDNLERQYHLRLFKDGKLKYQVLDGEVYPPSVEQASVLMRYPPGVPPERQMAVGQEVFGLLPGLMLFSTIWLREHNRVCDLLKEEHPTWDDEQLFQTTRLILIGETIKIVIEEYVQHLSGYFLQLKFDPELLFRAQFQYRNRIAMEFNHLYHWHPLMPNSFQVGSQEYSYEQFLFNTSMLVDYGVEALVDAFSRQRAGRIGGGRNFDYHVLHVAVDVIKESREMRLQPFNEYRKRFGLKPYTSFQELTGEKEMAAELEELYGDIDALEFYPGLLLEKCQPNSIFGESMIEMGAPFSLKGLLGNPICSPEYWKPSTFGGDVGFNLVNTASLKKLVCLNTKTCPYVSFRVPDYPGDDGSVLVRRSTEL
As to the kind of experiment: Macrophage assay (RAW264.7), COX-1. Format: cell-based, murine. The source says:
(§3) Thus, NSAID derivatives that are identified as potentially useful in the methods described herein can be further tested using, for example, the RAW264.7 murine macrophage cell line. These cells are readily available (for example, from the American Type Culture Collection (ATCC), Manassas, Va., United States of America) and are easily cultured in large numbers. They normally express low levels of COX-1 and very low to undetectable levels of COX-2. Upon exposure to bacterial lipopolysaccharide (LPS), however, COX-2 levels increase dramatically over the ensuing 24 hour period, and the cells produce PGD2 and PGE2 from endogenous arachidonic acid stores (generally, ˜1 nmol/10^7 cells total PG formation). After LPS exposure, the addition of exogenous arachidonic acid results in the formation of additional PGD2 and PGE2 as a result of metabolism by the newly synthesized COX-2.
(§4) This system provides a number of approaches for testing the inhibitory potency of COX-2-selective ligands (e.g., inhibitors). In general, following LPS activation, cells can be treated for 30 minutes with the desired concentrations of candidate derivative(s) in DMSO. ^14C-arachidonic acid can be added, and the cells can be incubated for 15 minutes at 37° C. Product formation can be assessed following extraction and TLC separation of the culture medium. Alternatively, the effects of candidate derivatives on PG synthesis from endogenous arachidonic acid can be assessed by incubating cells with desired concentrations of candidate derivatives 30 minutes prior to LPS exposure. Following a 24-hour incubation, medium can be collected and extracted, and the amount of PGD2 and/or PGE2 can be assayed by gas chromatography-mass spectrometry, liquid chromatography-mass spectrometry, or ELISA.

The next data set addresses T3, ovine COX-1 (Ovis aries, UniProt P05979).
T3 construct: can be purified from ovine seminal vesicles by standard procedures; from tissue; host or cells: ovine seminal vesicles
T3 sequence (P05979 25-600): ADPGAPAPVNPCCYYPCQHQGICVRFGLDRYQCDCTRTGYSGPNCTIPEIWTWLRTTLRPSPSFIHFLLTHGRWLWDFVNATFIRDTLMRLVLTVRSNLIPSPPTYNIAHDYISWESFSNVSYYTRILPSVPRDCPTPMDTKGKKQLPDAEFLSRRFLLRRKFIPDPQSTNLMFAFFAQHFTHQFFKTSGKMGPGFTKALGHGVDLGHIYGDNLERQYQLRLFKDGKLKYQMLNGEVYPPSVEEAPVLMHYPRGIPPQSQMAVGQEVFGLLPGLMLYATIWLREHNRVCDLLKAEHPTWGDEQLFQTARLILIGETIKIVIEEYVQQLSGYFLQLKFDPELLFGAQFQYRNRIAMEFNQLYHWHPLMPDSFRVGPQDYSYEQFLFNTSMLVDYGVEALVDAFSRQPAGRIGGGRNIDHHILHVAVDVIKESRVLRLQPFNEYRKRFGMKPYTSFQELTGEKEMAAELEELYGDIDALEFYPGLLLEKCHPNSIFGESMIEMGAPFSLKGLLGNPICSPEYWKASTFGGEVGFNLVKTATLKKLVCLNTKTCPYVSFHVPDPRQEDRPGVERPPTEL
As to the kind of experiment: IC50 determinations using purified enzymes (TLC assay), COX-1. To be noted: Table 3; assayed against purified enzymes. Format: biochemical.
Text: as §1, §2

The next data set can be described thus: Fluorescence in buffer. Particulars: for Fluor. λem: emission; for Fluor. λex: excitation. The class given is physicochemical.
The target of data set [2] is T4, COX-2 (Mus musculus, UniProt Q05769).
T4 construct: metabolism by the newly synthesized COX-2; endogenous in cells
T4 sequence (Q05769 18-604): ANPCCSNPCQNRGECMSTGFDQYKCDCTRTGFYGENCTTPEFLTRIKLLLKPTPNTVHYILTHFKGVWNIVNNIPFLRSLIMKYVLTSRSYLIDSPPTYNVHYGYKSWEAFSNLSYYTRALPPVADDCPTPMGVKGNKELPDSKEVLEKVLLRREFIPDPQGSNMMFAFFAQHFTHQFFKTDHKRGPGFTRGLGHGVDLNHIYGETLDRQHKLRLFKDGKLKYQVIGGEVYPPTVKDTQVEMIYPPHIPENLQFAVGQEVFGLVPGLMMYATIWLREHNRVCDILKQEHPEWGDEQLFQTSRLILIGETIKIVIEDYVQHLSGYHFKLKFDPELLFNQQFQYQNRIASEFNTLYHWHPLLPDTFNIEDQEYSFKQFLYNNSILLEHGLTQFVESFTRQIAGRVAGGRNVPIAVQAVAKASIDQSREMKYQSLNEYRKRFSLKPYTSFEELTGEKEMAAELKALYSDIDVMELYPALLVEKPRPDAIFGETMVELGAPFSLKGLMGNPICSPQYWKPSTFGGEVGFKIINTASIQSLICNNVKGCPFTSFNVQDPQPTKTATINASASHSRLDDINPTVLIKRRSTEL
As to the kind of experiment: Macrophage assay (RAW264.7), COX-2. Format: cell-based, murine. To be noted: Table 2; macrophage assay (M); read-out: IC50 COX-2.
Text: as §3, §4

Another data set deals with RAW264.7 cells. As to the kind of experiment: In vitro cell imaging, LPS/IFNγ-activated RAW264.7 cells. Format: cell-based, mouse. The procedure: RAW264.7 cells (a line established from a tumor induced in a mouse by Abelson murine leukemia virus and available from the American Type Culture Collection, Manassas, Va., United States of America) were grown overnight on 35 mm culture dishes (MatTek Corp., Ashland, Mass., United States of America) with glass coverslips in Dulbecco's Modified Eagle Medium (DMEM) plus 10% heat-inactivated fetal bovine serum (FBS). Platings of cells were done in order to reach 30% confluency the next day. After overnight growth, the growth medium was replaced with 2 ml serum-free DMEM per dish. Individual dishes then received 200 ng/ml LPS plus 10 units/ml murine IFNγ (Roche Applied Science, Indianapolis, Ind., United States of America) for 6 hours to induce COX-2. […] After 30 minutes, the cells were washed briefly three times in medium and incubated in Hank's balanced salt solution (HBSS)/Tyrode's for 60 minutes at 37° C. After 60 minutes, the HBSS/Tyrode's was removed and fresh HBSS/Tyrode's was added. The cells were immediately imaged using a Zeiss Axiovert 25 Microscope (propidium iodide filter/2-3 sec exposure/gain of 2).

Where two headings read alike, the source gives them in different places.

In general, IC50 refers to the concentration needed to halve the response being measured. In the case of `CCN(CC)c1ccc2c(-c3ccc(S(=O)(=O)NCCOCCOCCOCCOCCC(=O)NCCNC(=O)CCc4cc(-c5ccc(C)cc5)n(-c5ccc(S(N)(=O)=O)cc5)n4)cc3S(=O)(=O)[O-])c3ccc(=[N+](CC)CC)cc-3oc2c1` [Compound 30f], the half-inhibitory concentration (IC50) was not below 25 µM at COX-2 [1] (Table 3) and more than 5e-06 M on COX-1 (Table 3, macrophage assay).
For `COc1ccc2c(c1)c(CC(=O)NCCCCNS(=O)(=O)c1cccc3c(N(C)C)cccc13)c(C)n2C(=O)c1ccc(Cl)cc1` [Compound 27z], the IC50 on COX-2 [1] (Table 3) is 0.067 µM; against ovine COX-1, more than 25 µM; against COX-1 (Table 3, macrophage assay), more than 1e-06 M. In addition, the “Fluor. λem” value in “Fluorescence in buffer” was found to be 504 nm. In “Fluorescence in buffer”, the “Fluor. λex” value worked out at 324 nm.
In the case of `Cc1ccc(-c2cc(CCC(=O)O)nn2-c2ccc(S(N)(=O)=O)cc2)cc1` [Compound 30c, 3-[1-{p-(Sulfonamido)phenyl}-5-p-tolyl-1H-pyrazol-3-yl]propanoic acid], the IC50 was 8.9 µM on COX-2 [1] (Table 2); 1.4e-06 M at COX-2 [2]; more than 5e-06 M on COX-1 (Table 2, macrophage assay (M)).
As to `COc1ccc2c(c1)c(CC(=O)NCCNC(=O)c1cc3ccccc3oc1=O)c(C)n2C(=O)c1ccc(Cl)cc1` [Compound 27cc, N-{2-(Coumarin-3-carboxylamido)ethyl}-2-{1-(4-chlorobenzoyl)-5-methoxy-2-methyl-1H-indol-3-yl}acetamide], the IC50 on COX-2 [1] (Table 3) was 0.789 µM; at ovine COX-1, more than 25 µM; on COX-1 (Table 3, macrophage assay), more than 2.5e-05 M. The “Fluor. λem” value in “Fluorescence in buffer” was found to be 405 nm. Also, the “Fluor. λex” value in “Fluorescence in buffer” was 340 nm.
Take `COc1ccc2c(c1)c(CC(=O)NCCNC(=O)c1ccc(C(=O)[O-])c(C3=c4cc5c6c(c4Oc4c3cc3c7c4CCCN7CCC3)CCC[N+]=6CCC5)c1)c(C)n2C(=O)c1ccc(Cl)cc1` [Compound 27ww]: the IC50 at COX-2 [1] (Table 3) and against ovine COX-1 was more than 25 µM each time. Besides, in the data set on RAW264.7 cells (200 nM, 30 minutes, LPS-activated RAW264.7), the “fluorescence imaging of cells” value is on record as “No fluorescence above background”. Also, in the data set on RAW264.7 cells (RAW264.7, HEK293/COX-2 and 1483 imaging assays), the “fluorescence of control compounds in these in vitro assays” value is given as “minimal fluorescence”.
On to `CCN(CC)c1ccc2c(-c3ccc(S(=O)(=O)NCCOCCOCCOCCOCCC(=O)NCCCCNC(=O)Cc4c(C)n(C(=O)c5ccc(Cl)cc5)c5ccc(OC)cc45)cc3S(=O)(=O)[O-])c3ccc(=[N+](CC)CC)cc-3oc2c1` [Compound 27iii, 5-(N-(23-(1-(4-chlorobenoyl)-5-methoxy-2-methyl-1H-indol-3-yl)-15,22-dioxo-3,6,9,12-tetraoxa-16,21-diazatricosyl)sulfamoyl)-2-(6-(diethylamino)-3-(diethyliminio)-3H-xanthen-9-yl)benzenesulfonate], for which the IC50 at COX-2 [1] (Table 3) was 0.16 µM; against ovine COX-1 it was more than 25 µM; against COX-1 (Table 3, macrophage assay), more than 5e-06 M. Further, the “Fluor. λex” value in the data set “Fluorescence in buffer” was determined as 571 nm.
For the compound `COc1ccc2c(c1)c(CC(=O)NCCCNS(=O)(=O)c1cccc3c(N(C)C)cccc13)c(C)n2C(=O)c1ccc(Cl)cc1` [Compound 27y], the IC50 on COX-2 [1] (Table 3) was 0.075 µM; against ovine COX-1, more than 25 µM; at COX-1 (Table 3, macrophage assay) it was more than 1e-06 M. In “Fluorescence in buffer”, the “Fluor. λem” value was found to be 497 nm. The “Fluor. λex” value in “Fluorescence in buffer” came to 343 nm.
